Experiments:
Assay type in all cases: in vivo, rat
[1] = system: Sprague-Dawley rats; assay: Morris water maze (MWM) test
Excerpt: Sixty-four G1 rats (32 control and 32 sevoflurane exposed) and 122 G2 rats, which were not exposed to sevoflurane anesthesia and were subjected to animal facility rearing only, were studied. The G1 rats were sequentially evaluated in the EPM starting on ~P125, PPI of the acoustic startle response on ~P135 and MWM starting ~on P145 (FIG. 1). One half of these animals were sacrificed on ≥P160 to collect trunk blood, brain and testis and ovarian tissues for further analyses. The rest of these animals were physically restrained for 30 min on ≥P160 to measure corticosterone responses, followed by collection of tissue samples (as above) for further analyses. The G2 rats were evaluated in the EPM starting on P60 and PPI of startle on P70 (FIG. 1). One half of these animals were sacrificed on ≥P95 to collect trunk blood and brain tissue samples for further analyses, and the rest of these animals were tested for the corticosterone responses to physical restraint for 30 min on ≥P95 before collecting the trunk blood and brain tissue samples.
The MWM tests were run using a MWM apparatus and data were analyzed using a computer-based video tracking system (Water 2020; HVS Image) as previously described. 5

[2] = system: Sprague-Dawley rats; assay: Serum FSH, LH, testosterone (Tn), estradiol (E2) by ELISA and testis weight
Excerpt: Sixty-four G1 rats (32 control and 32 sevoflurane exposed) and 122 G2 rats, which were not exposed to sevoflurane anesthesia and were subjected to animal facility rearing only, were studied. The G1 rats were sequentially evaluated in the EPM starting on ~P125, PPI of the acoustic startle response on ~P135 and MWM starting ~on P145 (FIG. 1). One half of these animals were sacrificed on ≥P160 to collect trunk blood, brain and testis and ovarian tissues for further analyses. The rest of these animals were physically restrained for 30 min on ≥P160 to measure corticosterone responses, followed by collection of tissue samples (as above) for further analyses. The G2 rats were evaluated in the EPM starting on P60 and PPI of startle on P70 (FIG. 1). One half of these animals were sacrificed on ≥P95 to collect trunk blood and brain tissue samples for further analyses, and the rest of these animals were tested for the corticosterone responses to physical restraint for 30 min on ≥P95 before collecting the trunk blood and brain tissue samples. After decapitation, the trunk blood samples were collected and centrifuged at 4° C., 1000 g for 15 min, and then kept at -80° C. for hormone assays. The brain was removed from the skull onto ice pads. The hypothalamus was isolated by making an anterior cut at the level of the optic chiasm, a posterior coronal section anterior to the mammillary bodies, two sagittal cuts parallel to the lateral ventricles and a dorsal horizontal cut at the level of the anterior commissure, as described elsewhere.^19 The hippocampus was isolated from the respective blocks. All tissue samples were placed in vials filled with RNAlater solution (Invitrogen, Carlsbad, CA) and then stored at -80° C. Testis tissue was removed and washed with 0.9% saline before weighing. Sperm were isolated from the caudal epididymis of adult males into PBS with 1% BSA at 37° C. using a swim-up assay. After settling for 30 min, sperm-containing supernatant was centrifuged for 5 min at 4000 rpm. Sperm pellets were stored at -80° C. After separation from the adipose tissues, ovaries were stored at -80° C. Hormone analyses in serum samples isolated from G1 and G2 rats were performed using commercially available kits according to the manufacturer's instructions. Serum concentrations of FSH (CSB-E06869r) and LH (CSB-E12654r) were quantified using ELISA kits (CUSABIO TECHNOLOGY LLC, Houston, TX, USA). Serum Tn and E2 concentrations were measured using ELISA kits (582701, Cayman Chemical Company, Ann Arbor, MI, USA and E[…]-100, Calbiotech, Spring Valley, CA, USA, respectively).

[3] = system: Crh, Grs, Erα, Erβ, aromatase, Gnrh, Nkcc1 and Kcc2 mRNA; assay: qRT-PCR of mRNA levels in hypothalamus and hippocampus
Description: Levels of mRNA for Nkcc1 and Kcc2 in the hypothalamus and hippocampus, for Crh, Erα, Erβ, aromatase, GnRH in the hypothalamus, and for Grs in the hippocampus were analyzed via reverse transcription-PCR (qRT-PCR) in a StepOnePlus™ Real-Time PCR System (Applied Biosystems, Foster City, CA) as previously described. 5 RNA was extracted from the samples using an RNeasy Plus Kit (Qiagen, Valencia, CA), reverse transcribed with a high-capacity cDNA reverse transcription kit (Bio-Rad Laboratories, Hercules, CA), and then analyzed via qRT-PCR. Taqman probes specific for the above genes were obtained from Applied Biosystems (Carlsbad, CA): Crh (Rn01462137_m1), Gr (Rn00561369_m1), Erα (Rn01430446_m1), Erβ (Rn00562610_m1), aromatase (Rn00567222_m1), Gnrh (Rn00562754_m1), Nkcc1 (Rn00582505_m1) and Kcc2 (Rn00592624_m1). Data were normalized to glyceraldehyde-3-phosphate dehydrogenase (Gapdh) mRNA (Rn01775763_g1). Gene expression was calculated using the ΔΔCT method and data are presented as relative fold change from that of control animals.

[4] = G2 males, parental exposure to sevoflurane
[5] = G1 female rats, control vs sevoflurane-exposed
[6] = G1 female rats, more than 3 months after exposure
[7] = G1 male rats, more than 3 months after exposure
[8] = G2 female rats, parental sevoflurane exposure
[9] = G2 females, parental sevoflurane exposures
[10] = G2 males, all four treatment groups

MWM tests ([1]; G1 female rats): no significant group effects
MWM escape latencies ([1]; G1 male rats, 5-day training period): no significant between-subjects effect
crossings over the escape platform location, MWM ([1]; G1 male rats, probe test): fewer crossings
time in the target quadrant of the MWM ([1]; G1 male rats, probe test): significantly less time
testis weight ([2]; G1 male rats, vs control): significantly reduced
testis weight [2, 4]: no significant treatment effects
hippocampal Kcc2 mRNA levels [3, 5]: similar
hippocampal Nkcc1 mRNA levels [3, 5]: similar
Kcc2 mRNA levels in the hypothalamus [3, 6]: unaltered
Nkcc1 mRNA levels in the hypothalamus [3, 6]: unaltered
hypothalamic levels of Erα mRNA ([3]; G1 female rats, vs control): not different
hypothalamic levels of Erβ mRNA ([3]; G1 female rats, vs control): slightly, though significantly increased
hypothalamic levels of Gnrh mRNA ([3]; G1 female rats, vs control): no significant treatment effects
increase in hypothalamic aromatase mRNA ([3]; G1 female rats, vs control): did not achieve statistical significance
hypothalamic Crh mRNA levels ([3]; G1 male rats, 2 hours after the restraint, vs control): increased
Kcc2 mRNA levels in the hippocampus [3, 7]: significantly reduced
Kcc2 mRNA levels in the hypothalamus [3, 7]: decreased
Nkcc1 mRNA levels in the hippocampus [3, 7]: but not Nkcc1 mRNA levels
Nkcc1 mRNA levels in the hypothalamus [3, 7]: normal
Gr mRNA in the hippocampus ([3]; G1 male rats, vs control): reduced
hypothalamic levels of Era mRNA ([3]; G1 male rats, vs control): increased
hypothalamic levels of Erβ mRNA ([3]; G1 male rats, vs control): decreased
hypothalamic levels of Gnrh mRNA ([3]; G1 male rats, vs control): increased
hypothalamic levels of aromatase mRNA ([3]; G1 male rats, vs control): significantly increased
hippocampal Gr mRNA levels [3, 8]: no significant between-subjects effects
hypothalamic Crh mRNA [3, 8]: no significant between-subjects effects
Kcc2 mRNA level in the hippocampus [3, 9]: not significant
Kcc2 mRNA levels in the hypothalamus [3, 9]: not significant
Nkcc1 mRNA level in the hippocampus [3, 9]: not significant
Nkcc1 mRNA levels in the hypothalamus [3, 9]: not significant
hippocampal Kcc2 mRNA levels ([3]; G2 male offspring of both exposed parents): reduced
hippocampal Kcc2 mRNA levels ([3]; G2 male offspring of exposed fathers and control mothers): reduced
hypothalamic Kcc2 mRNA levels ([3]; G2 male progeny of sevoflurane exposed fathers and mothers, vs offspring of control parents): lower levels
Crh mRNA in the hypothalamus [3, 10]: not different
Gr mRNA levels in the hippocampus [3, 10]: not different
Nkcc1 mRNA levels in the hippocampus ([3]; G2 males, parental sevoflurane exposure): no significant effects
Structure (SMILES): FCOC(C(F)(F)F)C(F)(F)F [sevoflurane, 1,1,1,3,3,3-hexafluoro-2-(fluoromethoxy)propane]
serum levels of E2 (estradiol) ([2]; G1 female rats, vs control): not different
serum levels of FSH ([2]; G1 female rats, vs control): no significant treatment effects
serum levels of LH ([2]; G1 female rats, vs control): no significant treatment effects
serum levels of Tn (testosterone) ([2]; G1 female rats, vs control): not different
serum levels of Tn (testosterone) ([2]; G1 male rats, more than 3 months after sevoflurane exposure, vs control): significantly increased
serum levels of FSH ([2]; G1 male rats, vs control): not different
serum levels of LH ([2]; G1 male rats, vs control): increased
serum levels of Tn [2, 4]: no significant treatment effects
hippocampal Gr mRNA levels ([3]; G1 female rats, vs control): Neither hypothalamic Crh mRNA levels (FIG. 4C) nor hippocampal GrmRNA levels (FIG. 4D) were different
hypothalamic Crh mRNA levels ([3]; G1 female rats, vs control): Neither hypothalamic Crh mRNA levels (FIG. 4C) nor hippocampal GrmRNA levels (FIG. 4D) were different

Reference: US12721823B2, “Methods and compositions for treatment of low circulating testosterone conditions” (University of Florida Research Foundation, Inc., priority 2021, dated 2026)
